Assay results reported in US20190292514A1, “FERMENTATION MEDIUM COMPRISING CHELATING AGENT” (priority 2016, published 2019).

What was measured:
[1] = Trace element solutions with different chelating agents: pH, color and precipitation; type: physicochemical; conditions: for color development and clarity of trace element solution after final mixing: after addition of Na2MoO4 and final mixing (EDTA: after pH adjustment to pH 4); for measured pH value of trace element solution: after addition of all salts and final mixing, chelating agent equimolar to divalent cations; for precipitation of trace element solution after storage for 24 h and pH adjustment to pH 6: storage 24 h at room temperature or 4° C., pH readjusted to pH 6; for complexation and precipitation compared with citrate (summary): trace element solutions
Source text: A trace element solution was mixed together with one of the following chelating agents: citric acid, […], DTPA, EGTA, or […]. Therefore, at first each chelating agent was weight equimolar to the utilized divalent cations. […] After each compound supplementation the solutions were characterized regarding pH value, color and precipitation. After the addition of the last compound, i.e., Na2MoO4, the solutions were aliquoted. […] Afterwards samples were again characterized by pH value, color and precipitation behavior.

[2] = system: Bacillus licheniformis producing a subtilisin protease; experiment: Microtiter plate cultivation, biomass growth by scattered light; type: cell-based; conditions: μL scale; for development of biomass (scatter plot) / maximal biomass values lower compared to MGDA or NTA: 30° C., 48 h; for development of biomass (scatter plot): chelating agent equimolar; for higher scatter (growth and maximal scatter values) compared to citric acid, EGTA, HEEDTA, DTPA and EDTA: FIG. 1
Experimental: (§1) Glucose was supplied in total in an amount of 14 g/I for a cultivation time of 48 h. […] The different fermentation media were aliquoted to a BioLector Flowerplate/microtiter plate […] labs) 700 μL each and cultivated at 30° C., shaker frequency 1200 rpm for 48 h after inoculating with Bacillus licheniformis producing a subtilisin protease. During the cultivation oxygen partial pressure, pH and scattered light for biomass growth are measured online by optical sensors every 15 min.

[3] = system: Bacillus licheniformis producing a subtilisin protease; experiment: Protease formation in microtiter plate cultivation, casein based activity assay; type: cell-based; conditions: normalized activity units; for enzyme (protease) activity lower than with citrate: comparable for pH 6.7 and pH 7.7, μL scale; for enzyme (protease) activity compared with citrate: trace element solution pH 6.7 and pH 7.7, μL scale
Experimental: as §1, with “min. For characterization of protease formation enzyme activity was measured by casein based activity assay.” for “min.”

[4] = Fermentation medium with trace element solutions and different chelating agents: precipitation; type: physicochemical; conditions: for precipitation in fermentation medium, pH adjustment to 6: samples with pH adjustment to 6; for precipitation in fermentation medium, pH adjustment to 6 / precipitation in fermentation medium, pH adjustment to 7.7: 24 h storage; for precipitation in fermentation medium, pH adjustment to 7.7: samples with pH adjustment to 7.7
Experimental: A fermentation medium was mixed with different chelating agents. Therefore, deionized water, Ca(NO3)2*4 H2O, MgSO4*7H2O, NH4H2PO4, and KH2PO4 were mixed together in this certain order with the respective chelating agent. Each chelating agent was weight equimolar to the utilized divalent cations. Afterwards the pH is measured. All three media were aliquoted six times each. Three aliquots of each medium were adjusted to pH 6.7, the other three samples to pH 7.7. Samples were mixed with the trace element solutions as described in Example 1 and stored at 35° C., room temperature and 4° C. for 24 h. Then color formation and precipitation were characterized.

[5] = system: Bacillus licheniformis producing a subtilisin protease; experiment: Fed-batch cultivation process in 20 L scale, protease formation; type: cell-based; conditions: 20 L scale fed-batch; for STY (productivity), space time yield normalized to % / Titer (productivity), normalized to %: 37° C., pH 7.7, 2 mL/L chelating agent, citric acid = 100%
Experimental: The fermentation processes were conducted in a baffled stirred tank reactor (STR) with pH, pO2 and temperature probes in a medium with glucose as main carbon source and complex plant protein as N-source. The concentration of O2 and CO2 were monitored by gas analyses. For the cultivations, the fedbatch mode was chosen with a start working volume of 10 L. As bioreactors, 21 L steal vessels were used with 3 rushton turbines with 6 blades.
Medium preparation and sterilization for seed and main culture medium took place in the bioreactor, respectively. The medium contained complex plant protein, NH4H2PO4, KH2PO4, Mn(II)SO4*H2O, Fe(II)SO4*7H2O, MgSO4*7H2O, Ca(NO3)2*4 H2O, trace element solution as described above, antifoam and 2 mL/L MGDA or citric acid. pH was adjusted to pH 6.5. The medium was sterilized in the bioreactor under stirred conditions (600 rpm) for 60 min at 121° C. For inoculation with Bacillus licheniformis producing a subtilisin protease 2% of the starting working volume was used from a seed culture fermenter with the same medium. Seed culture cultivation was conducted at 37° C. and harvested during exponential growth phase after 16 h. The main cultivation was conducted at 37° C., with pO2 dependent stirred cascade from 350-1400 rpm, pH 7.7 and an aeration rate of 1.5 wvvm. The glucose feed was started 8 h after inocu lation.

SMILES	measured pH value of trace element solution [1]	complexation and precipitation compared with citrate (summary) [1]	precipitation on supplementation of CuSO4 ([1]; during preparation of the trace element solution)	precipitation of trace element solution after storage for 3 h at 4° C. ([1]; 3 h at 4° C.)	precipitation in fermentation medium, pH adjustment to 6 [4]	precipitation in fermentation medium, pH adjustment to 7.7 [4]	color development and clarity of trace element solution after final mixing [1]	precipitation of trace element solution after storage for 24 h and pH adjustment to pH 6 [1]	development of biomass (scatter plot) [2]	maximal biomass values lower compared to MGDA or NTA [2]	enzyme (protease) activity lower than with citrate [3]	higher scatter (growth and maximal scatter values) compared to citric acid, EGTA, HEEDTA, DTPA and EDTA [2]	enzyme (protease) activity compared with citrate [3]	product titer and space time yields versus citric acid [5]	STY (productivity), space time yield normalized to % [5]	Titer (productivity), normalized to % [5]	precipitation in fermentation medium ([4]; all samples, pH 6.7 and 7.7, 35° C., room temperature and 4° C. for 24 h)
O=C(O)CN(CCN(CC(=O)O)CC(=O)O)CCN(CC(=O)O)CC(=O)O [DTPA, diethylene triamine pentaacetic acid]	2.6	better results than citrate					dark green and was a clear solution	no precipitation was detected	no growth was detected								
O=C(O)CN(CCN(CC(=O)O)CC(=O)O)CC(=O)O [EDTA, ethylene diamine tetraacetic acid]	3		strong white precipitates occurred				blue and clear solution	no further precipitation was noticed	no growth was detected								
O=C(O)CN(CCOCCOCCN(CC(=O)O)CC(=O)O)CC(=O)O [EGTA, ethylene glycol tetraacetic acid]	2.7						dark blue and was a clear solution	the solution turned darker and brownish	biomass growth started delayed	about 20%	about 25%						
O=C(O)CC[C@@H](C(=O)O)N(CC(=O)O)CC(=O)O [GLDA, glutamic acid N,N-diacetic acid]	3.7			precipitates were detected			light blue and was a crystal clear solution	precipitates were formed									
O=C(O)CC(O)(CC(=O)O)C(=O)O [citric acid]	4.6						emerald green and was a crystal clear solution	precipitates formed a red pellet	biomass growth started delayed	about 20%					100%	100%	strong precipitations in all samples

Continued, in another order:

measured pH value of trace element solution [1]	complexation and precipitation compared with citrate (summary) [1]	precipitation on supplementation of CuSO4 ([1]; during preparation of the trace element solution)	precipitation of trace element solution after storage for 3 h at 4° C. ([1]; 3 h at 4° C.)	precipitation in fermentation medium, pH adjustment to 6 [4]	precipitation in fermentation medium, pH adjustment to 7.7 [4]	SMILES	color development and clarity of trace element solution after final mixing [1]	precipitation of trace element solution after storage for 24 h and pH adjustment to pH 6 [1]	development of biomass (scatter plot) [2]	maximal biomass values lower compared to MGDA or NTA [2]	enzyme (protease) activity lower than with citrate [3]	higher scatter (growth and maximal scatter values) compared to citric acid, EGTA, HEEDTA, DTPA and EDTA [2]	enzyme (protease) activity compared with citrate [3]	product titer and space time yields versus citric acid [5]	STY (productivity), space time yield normalized to % [5]	Titer (productivity), normalized to % [5]	precipitation in fermentation medium ([4]; all samples, pH 6.7 and 7.7, 35° C., room temperature and 4° C. for 24 h)
2.6	better results than citrate					O=C(O)CN(CCO)CCN(CC(=O)O)CC(=O)O [HEEDTA, hydroxyethylethylene diamine triacetic acid]	dark blue and was a clear solution	no precipitation was detected	strong delayed growth and lower biomass development		60%						
2.8	better results than citrate			low precipitations	no precipitations occurred	CC(C(=O)O)N(CC(=O)O)CC(=O)O (stereo not shown) [MGDA, methyl glycine diacetic acid]	green blue and crystal clear solution	Neither after storage for 24 h nor after pH adjustment to pH of 6 any precipitates occurred	fastest growth and highest values			20%	on a comparable level as the prior art standard citrate	higher product titer and space time yields	110%	104%	
2.5	better results than citrate			low precipitations	no precipitations occurred	O=C(O)CN(CC(=O)O)CC(=O)O [NTA, nitrilotriacetic acid]	emerald green and was a crystal clear solution	Neither after storage time of 24 h nor after pH adjustment to pH of 6 any precipitates occurred	fastest growth and highest values			20%	on a comparable level as the prior art standard citrate				
